The values below come from patent US10493061B2, “Compositions and methods comprising 2-(acylamino)imidazoles” (priority 2014, dated 2019).

The IC50 is the concentration at which inhibition is half-maximal. A low value points to greater potency. Broadly, the bioavailability is dose-corrected exposure relative to a reference, in per cent. A lower bioavailability goes with little systemic uptake. Broadly, the half-life is the time in which the quantity being followed falls by half. Lower therefore signals fast loss. The AUC(0-inf) is total exposure, with the tail of the curve extrapolated. Low readings indicate low exposure, high ones high exposure. For orientation: AUC means the area under the concentration-time curve, a measure of exposure. Low readings indicate low exposure, high ones high exposure. In general, MRT inf refers to a mean duration of stay, worked out from the concentration-time curve. Broadly, the Cmax is the maximum level reached in the sampled fluid or tissue.

Series [1] concerns metal trafficking genes (MT1F, MT1X, MT2A, SLC30A1, SLC30A2) in MCF-7 cells. Put plainly: Transcriptome sequencing (RNA-seq). The settings on record: 30 μM ZNA, 3 hours, sustained at 12 hours.
The test system of series [2] is pleural effusion (PE1100025) primary metastatic breast cancer cells. As to the kind of experiment: 12-point dose response, ATP cell viability assay. As to conditions: 12-point dose response. The class given is cell-based, human.
A further series relates to MCF-7s. Put plainly: Cell viability of MCF-7 cells treated with ZNA and ZNA analogues. The class given is cell-based, human. As to conditions: Homo sapiens, MCF7S; 24 h treatment. An excerpt:
Of the analogues evaluated, those with more electron-donating groups at C5 or on the N^2-carbonyl seem to improve activity.

Series [3] deals with cancer cells (malignant cell types tested). As to the kind of experiment: Clonogenic cell survival assay. The settings on record: 24 hours ZNA, then three weeks of growth, crystal violet.
Experimental: Clonogenic cell survival assays were conducted as described in Franken NAP, Rodermond H M, Stap J, Haveman J, van Bree C.
Further experiments were also conducted to assess the effects of short-term ZNA treatment on long-term cell survival and proliferation. Cells were treated for 24 hours with ZNA then cultured in the absence of the small molecule; following three weeks of growth, colonies were stained with crystal violet and quantified (FIG. 1D).
Series [4] deals with hTERT-HMEC normal mammary epithelial cells. As to the kind of experiment: Dose response, ATP cell viability assay. The class given is cell-based, human.
The subject of series [5] is MCF-10A normal mammary epithelial cell line. As to the kind of experiment: Dose response, luciferase-based ATP (ATPlite) viability assay. The class given is cell-based, human. As to conditions: five days of treatment.
Series [6] has the same test system. As to the kind of experiment: Cell death by propidium iodide staining and flow cytometry. The format is cell-based, human. How it is done: Measurement of cell death by propidium iodide staining: Cells were cultured to 80% confluence in 6-well plates and the growth media was then replaced with low serum (2% FBS) drug-containing media. Each condition was assessed in triplicate. Following the completion of treatment, the media and floating cells were collected and combined with the trypsinized adherent cells. The cells were washed with 2% FBS/HBSS, and resuspended in a propidium iodide solution (Cell Signaling) for analysis by flow cytometry. The percentage of propidium iodide positive cells for each treatment condition were averaged and normalized to the vehicle-treated control. The normalized data were plotted as the average±standard error of three replicates.
In order to validate the transition metal screen with a second cell viability assay, propidium iodide uptake was measured in four cell lines by flow cytometry following a 24-hour treatment with either 30 μM ZNA alone or in combination with 30 µM CuSO4 or 30 μM ZnSO4 (FIG. 2B).
Since autophagy can stimulate both pro-death and pro-survival pathways, experiments were next conducted to assess how autophagic inhibitors impacted ZNA's cell death profile. […] As such, cells were treated with ZNA in combination with chloroquine, an inhibitor of autophagosome function, and cell death was assessed by propidium iodide stain following 72 hours of treatment. […]
In general terms: Flow cytometry measures light scatter and fluorescence of single cells or particles in a stream.

For another series, the system named is MCF-10A cells. As to the kind of experiment: Total cellular Zn^2+ by ICP-AES. The format is cell-based, human. As to conditions: 30 μM ZNA with 30 μM ZnSO4, three hours; detection limit 1.00 μg/L. How it is done:
(§1) Inductively coupled plasma-atomic emission spectroscopy (ICP-AES) analysis: Cells were cultured to 80% confluence in 10-cm plates and the growth media was then replaced with low serum (2% FBS) drug-containing media. After three hours of treatment, the media was discarded and the cells washed with 1×PBS. To each 10-cm plate, 1 mL of nitric acid (TraceSELECT Ultra for trace analysis, Sigma) was added directly to the plate. The nitric acid mixture was submitted for inductively coupled plasma-atomic emission spectroscopy (ICP-AES) analysis following methods established by the Environmental Protection Agency. Martin T D, Brockhoff C A, Creed J T. Method 200.7 Determination of Metals and Trace Elements in Water and Wastes by Inductively Coupled Plasma-Atomic Emission Spectrometry. Environmental Monitoring Systems Laboratory, US Environmental Protection Agency 1994. The experiment was performed in triplicate for each cell line and a fourth plate of cells was used to measure total protein (BCA assay, Thermo Fisher, Waltham, Mass., USA). The ICP-AES data were then normalized to total protein for each cell line used.
(§2) To further validate the combinatorial effect of ZNA and Zn^2+, inductively coupled plasma-atomic emission spectroscopy (ICP-AES) was employed to quantify absolute levels of cellular Zn^2+ following treatment. Four cell lines were treated with either 30 μM ZNA alone or 30 μM ZNA in conjunction with 30 μM ZnSO4 for three hours before harvesting. The samples were then analyzed by ICP-AES and the resulting data normalized to total protein (FIG. 8). […] The values obtained from the ICP-AES experiment correlate with the trends observed following FluoZin-3 measurements of Zn^2+, confirming the specificity of the fluorophore for Zn^2+ over other ions.

A further series relates to MCF-7 cells. As to the kind of experiment: Total cellular Zn^2+ by ICP-AES. As to conditions: 30 μM ZNA with 30 μM ZnSO4, three hours. The class given is cell-based, human. Here is the method: as §1, §2
The test system of another series is T47D cells. Put plainly: Total cellular Zn^2+ by ICP-AES. The format is cell-based, human. The settings on record: 30 μM ZNA with 30 μM ZnSO4, three hours. Here is the method:
as §1, §2

The next series deals with MDA-MB-231 cells. Put plainly: Total cellular Zn^2+ by ICP-AES. The format is cell-based, human. The settings on record: 30 μM ZNA with 30 μM ZnSO4, three hours. Here is the method:
as §1, §2

The nature of the next series: in vivo. More on the design: species or system Sprague-Dawley rats. As to conditions: rat. How it is done: ZNA has promising pkpd parameters. An initial pharmacokinetic (PK) analysis on ZNA was performed at 1 mg/kg IV, 5 mg/kg PO. ZNA was dosed to female Sprague-Dawley rats at either 1 mg/kg intravenously or at 5 mg/kg orally. Plasma was collected with K2EDTA and stored at −80° C. until analysis. Quantification of ZNA was performed by protein precipitation followed by ultra-high performance liquid chromatography (UHPLC) interfaced to an electrospray ionization quadrapole time-of-flight mass spectrometer (ESI-QTOF). Plasma concentrations were determined from a calibration curve using […]. The values determined were fit with Phoenix WinNonlin and pharmacokinetic values reported.
The plasma concentrations for ZNA were very low, and most samples fell below the lower limit of quantification for the assay (10.0 ng/mL). This limited the data available for fitting in WinNonlin. To increase the amount of data for fitting, values from below the curve were extrapolated to approximately 40% of the LLOQ and were used for PK fitting. The percent of the area extrapolated in the PO PK animals ranged from 34-70% which was considered quite high. […] The oral bioavailability determined was approximately 6%. This value is considered a rough estimate based upon the area extrapolated and the unusually high clearance determined. […] Possible explanations for the high clearance are binding of compound to red blood cells, extremely rapid clearance that requires collection of earlier time points to establish a more accurate CO, and extrahepatic elimination.

As to `COc1ccc(-c2c(Cc3ccccc3)[nH]/c(=N\C(=O)c3ccccc3F)n2C)cc1` [ZNA, (E)-N-(4-benzyl-5-(4-methoxyphenyl)-1-methyl-1H-imidazol-2(3H)-ylidene)-2-fluorobenzamide], the “metallothionein gene expression (MT1F, MT1X, MT2A)” value in series [1] was “increased metallothionein gene expression”. Further, the cell viability result in series [2] is reported as “effective at low micromolar concentrations”; in [4], “largely unaffected”; in series [5], “largely unaffected”. Further, 8.8 µM corresponded to half-maximal inhibition in the series with MCF-7s (IC50). For the same compound, the “long-term proliferative potential (colonies)” value in series [3] is listed as “significantly affected long-term proliferative potential”. For the same compound, the “cell death (propidium iodide uptake)” value in series [6] (30 μM ZNA with 30 μM ZnSO4, 24 hours) is on record as “unaffected”. In series [6] (ZNA with chloroquine, 72 hours), the “ZNA-induced cell death (propidium iodide)” value is given as “did not significantly affect cell death”. The “concentration of Zn^2+” value in the series on MCF-10A cells is on record as “not detectable”; in the series on MCF-7 cells, 1.35 ng Zn^2+ per microgram of protein; with T47D cells, 0.52 ng Zn^2+ per microgram of protein; in the series with MDA-MB-231 cells, 0.82 ng Zn^2+ per microgram of protein. The same compound yielded a bioavailability in “in vivo” (female, Sprague-Dawley) of around 6%. The same compound showed a half-life in “in vivo” (female, Sprague-Dawley) of 1.9 h. Besides, the “clearance relative to hepatic blood flow” value in the series “in vivo” (female, Sprague-Dawley, iv) was determined as 235%. In “in vivo” (female, Sprague-Dawley, iv, 1 mg/kg, AUCINF_obs), this compound gave an AUC(0-inf) of 129 ng·h/mL. This compound showed an AUC in the series “in vivo” (female, Sprague-Dawley, iv, 1 mg/kg, AUCall) of 119 ng·h/mL. The MRT inf in “in vivo” (female, Sprague-Dawley, iv, 1 mg/kg, MRTINF_obs) came out at 2.1 h. The “percent of the area extrapolated” value in the series “in vivo” (female, Sprague-Dawley, po) is listed as 34-70%. In the series “in vivo” (female, Sprague-Dawley, po, 5 mg/kg, Cmax), the Cmax was 11.5 ng/mL. In the series “in vivo” (iv), the volume of distribution result is listed as “very high volume of distribution”.
